Series [1] addresses T1, CYP3A4 (Homo sapiens, UniProt P08684).
T1 construct: purchased ThermoFisher P2857; host or cells: baculosomes
As to the kind of experiment: CYP3A4 enzyme assay (Vivid CYP3A4 Green Screening Kit). The class given is in vitro ADME. Conditions: % enzyme inhibition at 1 μM drug / % enzyme inhibition at 1 μM itraconazole. Here is the method: And CYP3A4 inhibition was initially determined using a cell-free fluorescence-based assay at a final concentration of 1 μM (Table 7).
CYP3A4 enzyme assay. CYP3A4 enzyme activity was tested using Vivid™ CYP3A4 Green Screening Kit (ThermoFisher, #P2857) using the manufacturer's protocol. Briefly, CYP3A4 baculosomes and drugs were incubated 10 min at 37° C. Then Vivid® Substrates were added and the fluorescence (ex/em:485/520) were read every 1 min for 60 minute.

In the next series the test system is HUVEC. Kind of series: Filipin staining of intracellular cholesterol (NPC phenotype). It counts as cell-based, human. The note with it: 0.1 μM, 0.2 μM for 24 h in FIG. 14 legend. Here is the method: Intracellular cholesterol was visualized using filipin staining and fluorescent images were captured under a confocal microscope.
(§1) We thus determined whether compound 248 shared the same mechanism with itraconazole. The intracellular cholesterol was detected using the cholesterol-binding fluorescent dye filipin. […] It is known that AMPK activation leads to mTOR inhibition.
Filipin staining. 2000 HUVECs were plated in chamber slide with 1 ml media and allowed to settle overnight. cCells were treated with 0.1 uM drug or DMSO for 14 hours. The the cells were fixed with 4% paraformaldehyde for 15 min. After washed, cells were incubated with 500 ul 50 ug/ml filipin solution for 1 hour in the dark. Then the cells were washed twice with PBS, mounted and covered with coverslip. The images were taken using confocal microscope under 360/460 nm.

For series [2], the system named is AMPKα, ACC1, mTOR, p70 S6 Kinase phosphorylation. As to the kind of experiment: Western blot of AMPK/mTOR signaling in HUVEC. It counts as cell-based, human. Conditions: 24 h. Here is the method:
Cell lysates were subjected to Western blot.
as §1
Western blot. […] Then cells were lysed using RIPA buffer and the protein concentration were measured and normalized. After electrophoresis and transfer onto 0.45 um nitrocellulose membranes, the membranes were bolted with 5% BSA for 1 h and then incubated overnight at 4° C. Secondary antibody was applied to each membrane for 1 hour. Bolts were imaged using Syngene PXi imaging system after adding chemiluminescent substrate. The following antibodies were used for the assay: AMPKα (1:1,000, cell signaling, #2532s), phosphor-AMPKα (1:1,000, cell signaling #2535s), ACC (1:1,000, cell signaling #3662s), phosphor-ACC (1:1,000, cell signaling, #3661s), mTOR (1:1,000, cell signaling, #2972S), phosphor-mTOR (1:1,000, cell signaling, #9234s), p70 S6 Kinase (1:1,000, senta cruz, #sc-8418), phosphor-p70 S6 Kinase (1:1,000, cell signaling, #3662s), anti-Rabbit IgG (1:10000, GE lifesciences, #NA934V).
A general note: A western blot detects proteins with antibodies after separation by electrophoresis.

Series [3] concerns the target T1, CYP3A4. As to the kind of experiment: CYP3A4 enzyme assay (Vivid CYP3A4 Green Screening Kit). It counts as in vitro ADME. The note with it: dose response, FIG. 12; read-out: CYP3A4 inhibition IC50.
A further series concerns VEGFR2. Kind of series: VEGFR2 glycosylation in HUVEC (Western blot scoring). Further: key: ++: robust; +: intermediate; −: absent. Conditions: VEGFR2 hypoglycosylation score in HUVEC, 2 μM, 24 h. The class given is cell-based, human.
A further series has as its system Gli1 transcript. As to the kind of experiment: Quantification of Gli1 transcript by TaqMan analysis in MB cells (Hh pathway). The class given is cell-based, mouse. The gist of the method: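 After drug exposure, total RNA extracted from MB cells, reverse transcribed, and Gli1 quantified by TaqMan qPCR with mouse Gli-1 and actin primer/probe sets. Values expressed as fold induction relative to control by the 2^−ΔΔCt method, normalized to actin.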
(Real-time PCR tracks product formation cycle by cycle.)

The subject of another series is HUVEC tube formation. Kind of series: HUVEC tube formation assay on Matrigel. The class given is cell-based. Conditions: Homo sapiens, 20 h, read-out: inhibition of HUVEC tube formation (total tube length).

T1 sequence (P08684 whole entry): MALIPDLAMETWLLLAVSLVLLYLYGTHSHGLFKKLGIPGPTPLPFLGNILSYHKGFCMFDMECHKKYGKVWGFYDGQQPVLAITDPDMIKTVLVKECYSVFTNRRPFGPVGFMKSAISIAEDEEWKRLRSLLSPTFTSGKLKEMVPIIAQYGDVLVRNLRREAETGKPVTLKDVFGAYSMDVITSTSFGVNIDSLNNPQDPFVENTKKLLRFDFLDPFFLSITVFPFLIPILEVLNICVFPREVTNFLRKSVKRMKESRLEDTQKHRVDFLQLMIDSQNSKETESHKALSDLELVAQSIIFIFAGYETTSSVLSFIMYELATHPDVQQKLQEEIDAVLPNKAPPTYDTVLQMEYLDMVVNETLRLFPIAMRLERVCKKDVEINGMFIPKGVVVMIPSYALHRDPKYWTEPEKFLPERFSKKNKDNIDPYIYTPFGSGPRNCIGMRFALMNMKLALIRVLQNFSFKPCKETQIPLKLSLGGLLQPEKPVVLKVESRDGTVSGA

`CCC(C)n1ncn(-c2ccc(N3CCN(c4ccc(OC[C@@H]5CO[C@@](Cn6cnnn6)(c6ccc(Cl)cc6Cl)O5)cc4)CC3)cc2)c1=O` (stereo partly drawn) [Compound 248, 4-(4=(4-(4-(((2S,4R)-2-((1H-tetrazol-1-yl)methyl)-2-(2,4-dichlorophenyl)-1,3-dioxolan-4-yl)methoxy)phenyl)piperazin-1-yl)phenyl)-1-sec-butyl-1H-1,2,4-triazol-5(4H)-one]: at CYP3A4 [1], the “CYP3A4 Inhibition (compared to intracozanole at 1 μm)” value was 0.02. Moreover, the “NPC phenotype (cholesterol accumulation in late endosome/lysosome)” value with HUVEC is recorded as “induced NPC phenotype”. The “phosphorylation of AMPKα at Thr172” value in series [2] (0.01-1 μM, dose-dependent) is recorded as “increased”. Further, in series [2], the “phosphorylation of acetyl CoA carboxylase 1 (ACC1)” value is “increased”, the “phosphorylation of mTOR” value was “decrease” and the “phosphorylation of p70 S6 Kinase (S6K)” value is given as “decrease”. Also, the IC50 (as a rule, the point on the concentration scale where inhibition reaches its midpoint) at CYP3A4 [3] was more than 20 µM.
Consider `CCC(C)n1ncn(-c2ccc(N3CCN(c4ccc(OCC5COC(Cn6cncn6)(c6ccc(Cl)cc6Cl)O5)cc4)CC3)cc2)c1=O` (stereo not drawn) [Itraconazole, reference compound], for which, in the series on VEGFR2, the “Glycosylation (2 μM dose)” value was “++”. Moreover, the “Gli I Inhibition (IC90 Prolif. dose)” value in the series on Gli1 transcript (Gli1 transcript fold induction score, MB cells exposed 24 h at the IC90 for MB proliferation) was “++ (≤0.15)”. For the same molecule, the “inhibition of Gli1 transcript levels” value in the series with Gli1 transcript (established MB cultures, FIG. 9B) is given as “Dose-dependent inhibition”. In addition, the inhibition – broadly, the drop in the measured response relative to a control, in per cent – at 5 µM in the series with HUVEC tube formation was determined as 45%. The “NPC phenotype (cholesterol accumulation in late endosome/lysosome)” value with HUVEC is “induce NPC phenotype”.
